Laboratory results taken from patent US20250098679A1, “HERBICIDAL PYRIDONE DERIVATIVES” (SYNGENTA CROP PROTECTION AG, priority 2021, published 2025).

What was measured:
Assay type in all cases: in vivo
Conditions in all cases: evaluated after 13 days
Setaria faberi (SETFA) [1] = test: Pre-emergence Test, Setaria faberi (SETFA)
[2] = system: Echinochloa crus-galli (ECHCG); test: Pre-emergence Test, Echinochloa crus-galli (ECHCG)
Zea mays (ZEAMX) [3] = test: Pre-emergence Test, Zea mays (ZEAMX)
[4] = system: Ipomoea hederacea (IPOHE); test: Pre-emergence Test, Ipomoea hederacea (IPOHE)
[5] = system: Amaranthus palmeri (AMAPA); test: Pre-emergence Test, Amaranthus palmeri (AMAPA)
[6] = system: Amaranthus retoflexus (AMARE); test: Pre-emergence Test, Amaranthus retoflexus (AMARE)
Setaria faberi (SETFA) [7] = test: Post-emergence Test, Setaria faberi (SETFA); design: key to percentage damage caused to the plant, SETFA (five-point scale): 5=81-100%, 4=61-80%, 3=41-60%, 2=21-40%, 1=0-20% damage
How it was run: (§1)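 Scores are percentage plant damage on a 1–5 scale (1=0-20%, 2=21-40%, 3=41-60%, 4=61-80%, 5=81-100%), read 13 days after treatment. Pots received a spray at 1000 g/ha unless otherwise stated, formulated in acetone/water (50:50) containing 0.5% Tween 20.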

[8] = system: Echinochloa crus-galli (ECHCG); test: Post-emergence Test, Echinochloa crus-galli (ECHCG); design: key to percentage damage caused to the plant, ECHCG (five-point scale): 5=81-100%, 4=61-80%, 3=41-60%, 2=21-40%, 1=0-20% damage
How it was run: as §1

Zea mays (ZEAMX) [9] = test: Post-emergence Test, Zea mays (ZEAMX); design: key to percentage damage caused to the plant, ZEAMX (five-point scale): 5=81-100%, 4=61-80%, 3=41-60%, 2=21-40%, 1=0-20% damage
How it was run: as §1

[10] = system: Ipomoea hederacea (IPOHE); test: Post-emergence Test, Ipomoea hederacea (IPOHE); design: key to percentage damage caused to the plant, IPOHE (five-point scale): 5=81-100%, 4=61-80%, 3=41-60%, 2=21-40%, 1=0-20% damage
How it was run: as §1

[11] = system: Amaranthus palmeri (AMAPA); test: Post-emergence Test, Amaranthus palmeri (AMAPA); design: key: 5=81-100%, 4=61-80%, 3=41-60%, 2=21-40%, 1=0-20% damage
How it was run: as §1

[12] = system: Amaranthus retoflexus (AMARE); test: Post-emergence Test, Amaranthus retoflexus (AMARE); design: key to percentage damage caused to the plant, AMARE (five-point scale): 5=81-100%, 4=61-80%, 3=41-60%, 2=21-40%, 1=0-20% damage
How it was run: as §1

| SMILES | Pre-emergence Test SETFA, percentage damage caused to the plant (five-point scale) (Setaria faberi (SETFA) [1]; 1000 g/ha) | Pre-emergence Test ECHCG, percentage damage caused to the plant (five-point scale) ([2]; 1000 g/ha) | Pre-emergence Test ZEAMX, percentage damage caused to the plant (five-point scale) (Zea mays (ZEAMX) [3]; 1000 g/ha) | Pre-emergence Test IPOHE, percentage damage caused to the plant (five-point scale) ([4]; 1000 g/ha) | Pre-emergence Test AMAPA, percentage damage caused to the plant (five-point scale) ([5]; 1000 g/ha) | Pre-emergence Test AMARE, percentage damage caused to the plant (five-point scale) ([6]; 1000 g/ha) | percentage damage caused to the plant, SETFA (five-point scale) (Setaria faberi (SETFA) [7]; 250 g/Ha) | percentage damage caused to the plant, SETFA (five-point scale) (Setaria faberi (SETFA) [7]; 1000 g/ha) | percentage damage caused to the plant, ECHCG (five-point scale) ([8]; 250 g/Ha) | percentage damage caused to the plant, ECHCG (five-point scale) ([8]; 1000 g/ha) | percentage damage caused to the plant, ZEAMX (five-point scale) (Zea mays (ZEAMX) [9]; 250 g/Ha) | percentage damage caused to the plant, ZEAMX (five-point scale) (Zea mays (ZEAMX) [9]; 1000 g/ha) | percentage damage caused to the plant, IPOHE (five-point scale) ([10]; 250 g/Ha) | percentage damage caused to the plant, IPOHE (five-point scale) ([10]; 1000 g/ha) | percentage damage caused to the plant, AMAPA (five-point scale) ([11]; 250 g/Ha) | percentage damage caused to the plant, AMAPA (five-point scale) ([11]; 1000 g/ha) | percentage damage caused to the plant, AMARE (five-point scale) ([12]; 250 g/Ha) | percentage damage caused to the plant, AMARE (five-point scale) ([12]; 1000 g/ha) | further results |
| --- | --- | --- | --- | --- | --- | --- | --- | --- | --- | --- | --- | --- | --- | --- | --- | --- | --- | --- | --- |
| CCn1c(Cn2cncn2)cc(=O)c(C(=O)O)c1-c1ccc(Cl)c(Cl)c1 [Compound 49, 2-(3,4-dichlorophenyl)-1-ethyl-4-oxo-6-(1,2,4-triazol-1-ylmethyl)pyridine-3-carboxylic acid] | 0 | 1 (1=0-20%) | 0 | 0 | 1 (1=0-20%) | 2 (2=21-40%) | 1 (1=0-20%) | 2 (2=21-40%) | 0 | 2 (2=21-40%) | 0 | 0 | 1 (1=0-20%) | 0 | 0 | 1 (1=0-20%) | 0 | 0 |  |
| CCn1c(Cn2cnc([N+](=O)[O-])c2)cc(=O)c(C(=O)O)c1-c1ccc(Cl)c(Cl)c1 [Compound 50, 2-(3,4-dichlorophenyl)-1-ethyl-6-[(4-nitroimidazol-1-yl)methyl]-4-oxo-pyridine-3-carboxylic acid] | 0 | 1 (1=0-20%) | 0 | 0 | 1 (1=0-20%) | 1 (1=0-20%) |  | 2 (2=21-40%) |  | 1 (1=0-20%) |  | 1 (1=0-20%) |  | 2 (2=21-40%) |  | 3 (3=41-60%) |  | 0 |  |
| CCn1c(Cn2cc([N+](=O)[O-])c(C)n2)cc(=O)c(C(=O)O)c1-c1ccc(Cl)c(Cl)c1 [Compound 64, 2-(3,4-dichlorophenyl)-1-ethyl-6-[(3-methyl-4-nitro-pyrazol-1-yl)methyl]-4-oxo-pyridine-3-carboxylic acid] |  |  |  |  |  |  | 2 (2=21-40%) |  | 3 (3=41-60%) |  | 1 (1=0-20%) |  | 1 (1=0-20%) |  | 2 (2=21-40%) |  | 3 (3=41-60%) |  | Pre-emergence Test SETFA, percentage damage caused to the plant (five-point scale) (Setaria faberi (SETFA) [1]; 250 g/Ha (*)): 2 (2=21-40%); Pre-emergence Test ECHCG, percentage damage caused to the plant (five-point scale) ([2]; 250 g/Ha (*)): 0; Pre-emergence Test ZEAMX, percentage damage caused to the plant (five-point scale) (Zea mays (ZEAMX) [3]; 250 g/Ha (*)): 0; Pre-emergence Test IPOHE, percentage damage caused to the plant (five-point scale) ([4]; 250 g/Ha (*)): 3 (3=41-60%); Pre-emergence Test AMAPA, percentage damage caused to the plant (five-point scale) ([5]; 250 g/Ha (*)): 1 (1=0-20%); Pre-emergence Test AMARE, percentage damage caused to the plant (five-point scale) ([6]; 250 g/Ha (*)): 0 |
